# Test results reported in patent publication EP0066456B1, “N-substituted azaheterocyclic carboxylic acids and their esters” (SMITHKLINE BECKMAN CORPORATION, priority 1981, dated 1982).
# System: contralateral rotation in rats induced by unilateral injection of GABA into the pars reticulata of the substantia nigra
# Experiment: potentiation of GABA-induced contralateral rotation in rats (unilateral GABA injection into pars reticulata of substantia nigra)
# Assay type: in vivo
# Conditions: systemic administration, doses from 2.5 to 40.0 mg/kg, I.P.
# Method: Compounds active in the in vitro test described above are tested by systemic administration for their ability to penetrate the central nervous system and potentiate the rotation induced by GABA.
smiles,measurement,value
"Cl.O=C(O)C1CCCN(CCC=C(c2ccccc2)c2ccccc2)C1 (stereo not shown) [1 - (4,4 - diphenyl - 3 - butenyl) - 3 - piperidinecarboxylic acid hydrochloride]",potentiation of contralateral rotation induced by GABA,significantly active
